In article PMC9120017, “Inhibition mechanism of the chloride channel TMEM16A by the pore blocker 1PBC” (Nature Communications, 2022):
Read-outs that look alike come from different tables or passages of the source.

Biological target: T1, mouse TMEM16A mutant R535A (Mus musculus, UniProt Q8BHY3, R535A)
T1 construct: expressed in transfected cells; host or cells: HEK293T
T1 sequence (Q8BHY3 1-960 R535A): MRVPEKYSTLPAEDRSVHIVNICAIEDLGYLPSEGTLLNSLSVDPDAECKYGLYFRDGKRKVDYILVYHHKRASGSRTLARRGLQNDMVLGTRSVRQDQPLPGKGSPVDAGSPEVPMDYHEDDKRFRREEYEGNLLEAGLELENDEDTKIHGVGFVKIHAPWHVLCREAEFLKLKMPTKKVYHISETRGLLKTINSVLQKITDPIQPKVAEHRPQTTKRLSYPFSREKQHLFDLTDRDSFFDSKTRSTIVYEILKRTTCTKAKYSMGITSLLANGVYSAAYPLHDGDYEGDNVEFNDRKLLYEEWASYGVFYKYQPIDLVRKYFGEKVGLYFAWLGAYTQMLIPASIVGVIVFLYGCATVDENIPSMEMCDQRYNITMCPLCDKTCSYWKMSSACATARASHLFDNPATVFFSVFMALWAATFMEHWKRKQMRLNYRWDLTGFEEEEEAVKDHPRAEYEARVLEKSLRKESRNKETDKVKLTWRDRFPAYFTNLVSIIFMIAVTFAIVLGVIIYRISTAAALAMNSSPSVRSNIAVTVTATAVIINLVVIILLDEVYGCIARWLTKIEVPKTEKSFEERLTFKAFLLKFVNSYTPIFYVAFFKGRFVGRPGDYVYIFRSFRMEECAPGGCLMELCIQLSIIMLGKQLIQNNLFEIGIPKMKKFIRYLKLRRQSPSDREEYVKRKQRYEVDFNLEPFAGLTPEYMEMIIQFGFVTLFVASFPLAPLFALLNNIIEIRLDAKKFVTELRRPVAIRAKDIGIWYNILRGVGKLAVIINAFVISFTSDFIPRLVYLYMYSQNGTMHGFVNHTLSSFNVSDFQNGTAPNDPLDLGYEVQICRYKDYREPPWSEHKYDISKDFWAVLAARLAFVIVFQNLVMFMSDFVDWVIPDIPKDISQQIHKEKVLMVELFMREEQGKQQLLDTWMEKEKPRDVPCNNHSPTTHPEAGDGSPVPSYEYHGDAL
Assay: Inside-out patch recording of 1PBC block, mutant R535A
Type: cell-based
Settings: for remaining activity at 100 µM: 100 µM 1PBC
Method: HEK293T cells (ATCC CRL-1573) were maintained in Dulbecco’s modified Eagle’s medium (DMEM; Sigma-Aldrich) supplemented with 10 U ml^−1 penicillin, 0.1 mg ml^−1 streptomycin (Sigma-Aldrich), 2 mM L-glutamine (Sigma-Aldrich), and 10% FBS (Sigma-Aldrich) in a humidified atmosphere containing 5% CO2 at 37 °C. HEK293S GnTI^− cells (ATCC CRL-3022) were maintained in HyClone HyCell TransFx-H medium (GE Healthcare) supplemented with 10 U ml^−1 penicillin, 0.1 mg ml^−1 streptomycin, 4 mM L-glutamine, 0.15% poloxamer 188 (Sigma-Aldrich), and 1% FBS in an atmosphere containing 5% CO2 at 185 rpm at 37 °C. The ac splice variant of mouse TMEM16A (UniProt ID: Q8BHY3), mouse TMEM16B (UniProt ID: Q8CFW1), or mouse TMEM16F (UniProt ID: Q6P9J9) bearing a 3C cleavage site, a Venus YFP, a Myc tag, and a Streptavidin-binding peptide (SBP) downstream of the open reading frame in a modified pcDNA3.1 vector (Invitrogen) were used as described previously[21],[31]. Mutations were introduced using a modified QuikChange method[58] and were verified by sequencing.
HEK293T cells were transfected with 3–4 μg DNA per 6 cm Petri dish using the calcium phosphate co-precipitation method and were used within 24–96 h after transfection. Recordings were performed on inside-out patches excised from HEK293T cells expressing the construct of interest. Patch pipettes were pulled from borosilicate glass capillaries (O.D. 1.5 mm, I.D. 0.86 mm, Sutter Instrument) and were fire-polished with a microforge (Narishige) before use. Pipette resistance was typically 3–8 MΩ when filled with the recording solutions detailed below. Seal resistance was typically 4 GΩ or higher. Voltage-clamp recordings were made using Axopatch 200B, Digidata 1550, and Clampex 10.7 (Molecular Devices). Analog signals were filtered with the in-built 4-pole Bessel filter at 10 kHz and were digitized at 20 kHz. Solution exchange was achieved using a gravity-fed system through a theta glass pipette mounted on an ultra-fast piezo-driven stepper (Siskiyou). […] All recordings were performed at 20 °C.
A symmetrical ionic condition was used throughout. Stock solution with Ca^2+-EGTA contained 150 mM NaCl, 5.99 mM Ca(OH)2, 5 mM EGTA, and 10 mM HEPES at pH 7.40. Stock solution with EGTA contained 150 mM NaCl, 5 mM EGTA, and 10 mM HEPES at pH 7.40. Free Ca^2+ concentrations were adjusted by mixing the stock solutions at the required ratios calculated using the WEBMAXC program (http://web.stanford.edu/~cpatton/webmaxcS.htm). Patch pipettes were filled with the stock solution with Ca^2+-EGTA, which has a free Ca^2+ concentration of 1 mM. 1PBC (ChemBridge) stock was reconstituted in anhydrous DMSO (Sigma-Aldrich) at 100 mM and stored at −20 °C. Working solutions with 1PBC were prepared by serial dilution. Unless otherwise stated, experiments were performed at a saturating Ca^2+ concentration as shown in Supplementary Table 1 and the primary data were corrected for current rundown as described previously[21],[25].
Concentration-response relations, obtained from the ratio of the I-V plots before and after the application of the blocker, were fitted to the Hill equation,1 I/Imax=1/1+IC50/[blocker]^h where I/Imax is the normalized current responses, IC50 defines the concentration at which inhibition is at its half-maximum, and h is the Hill coefficient.

Question: How did the IC50 (0 mV, 2 µM Ca2+) turn out when N#Cc1c(C(F)(F)F)cc(O)n2c1nc1ccccc12 [1PBC] was run?
Answer: Its IC50 is 11.9 µM.

Question: What about the remaining activity at 3 µM (3 µM 1PBC, +80 mV, saturating Ca2+ (2 µM), read-out: I/Imax) of the same compound?
Answer: Its remaining activity at 3 µM is 67.6%.

Question: And the remaining activity at 3 µM (3 µM 1PBC, -80 mV, saturating Ca2+ (2 µM), read-out: I/Imax)?
Answer: The remaining activity at 3 µM was 91.3%.

Question: What about the remaining activity at 10 µM (10 µM 1PBC, +80 mV, saturating Ca2+ (2 µM), read-out: I/Imax) of the same compound?
Answer: Its remaining activity at 10 µM is 36.9%.

Question: What about the remaining activity at 10 µM (10 µM 1PBC, -80 mV, saturating Ca2+ (2 µM), read-out: I/Imax) of the same compound?
Answer: The remaining activity at 10 µM was 70.8%.

Question: And the remaining activity at 30 µM (30 µM 1PBC, +80 mV, saturating Ca2+ (2 µM), read-out: I/Imax)?
Answer: The remaining activity at 30 µM was 16.6%.

Question: What about the remaining activity at 30 µM (30 µM 1PBC, -80 mV, saturating Ca2+ (2 µM), read-out: I/Imax) of the same compound?
Answer: Its remaining activity at 30 µM is 46.3%.

Question: What about the remaining activity at 100 µM (+80 mV, saturating Ca2+ (2 µM), read-out: I/Imax) of the same compound?
Answer: Its remaining activity at 100 µM is 5.26%.

Question: And the remaining activity at 100 µM (-80 mV, saturating Ca2+ (2 µM), read-out: I/Imax)?
Answer: Its remaining activity at 100 µM is 21.3%.

Question: And the remaining activity at 3 µM (1PBC 3, 0 mV, read-out: fraction of unblocked current)?
Answer: The remaining activity at 3 µM was 80.7%.

Question: And the remaining activity at 3 µM (1PBC 3, 20 mV, read-out: fraction of unblocked current)?
Answer: Its remaining activity at 3 µM is 76.3%.

Question: What about the remaining activity at 3 µM (1PBC 3, 40 mV, read-out: fraction of unblocked current) of the same compound?
Answer: The remaining activity at 3 µM was 72.5%.

Question: What about the remaining activity at 3 µM (1PBC 3, 60 mV, read-out: fraction of unblocked current) of the same compound?
Answer: The remaining activity at 3 µM was 69.3%.

Question: And the remaining activity at 3 µM (1PBC 3, 80 mV, read-out: fraction of unblocked current)?
Answer: The remaining activity at 3 µM was 67.6%.

Question: And the remaining activity at 3 µM (1PBC 3, 100 mV, read-out: fraction of unblocked current)?
Answer: The remaining activity at 3 µM was 65.8%.

Question: And the remaining activity at 3 µM (1PBC 3, 120 mV, read-out: fraction of unblocked current)?
Answer: Its remaining activity at 3 µM is 66%.

Question: And the remaining activity at 3 µM (1PBC 3, 140 mV, read-out: fraction of unblocked current)?
Answer: The remaining activity at 3 µM was 66.6%.

Question: And the remaining activity at 3 µM (1PBC 3, -20 mV, read-out: fraction of unblocked current)?
Answer: Its remaining activity at 3 µM is 85.2%.

Question: And the remaining activity at 3 µM (1PBC 3, -40 mV, read-out: fraction of unblocked current)?
Answer: The remaining activity at 3 µM was 87.7%.

Question: What about the remaining activity at 3 µM (1PBC 3, -60 mV, read-out: fraction of unblocked current) of the same compound?
Answer: The remaining activity at 3 µM was 89.5%.

Question: What about the remaining activity at 3 µM (1PBC 3, -80 mV, read-out: fraction of unblocked current) of the same compound?
Answer: Its remaining activity at 3 µM is 91.3%.

Question: And the remaining activity at 3 µM (1PBC 3, -100 mV, read-out: fraction of unblocked current)?
Answer: Its remaining activity at 3 µM is 91.1%.

Question: What about the remaining activity at 3 µM (1PBC 3, -120 mV, read-out: fraction of unblocked current) of the same compound?
Answer: Its remaining activity at 3 µM is 92.2%.

Question: And the remaining activity at 3 µM (1PBC 3, -140 mV, read-out: fraction of unblocked current)?
Answer: Its remaining activity at 3 µM is 91.6%.

Question: And the remaining activity at 10 µM (1PBC 10, 0 mV, read-out: fraction of unblocked current)?
Answer: The remaining activity at 10 µM was 53.9%.

Question: And the remaining activity at 10 µM (1PBC 10, 20 mV, read-out: fraction of unblocked current)?
Answer: Its remaining activity at 10 µM is 48.3%.

Question: What about the remaining activity at 10 µM (1PBC 10, 40 mV, read-out: fraction of unblocked current) of the same compound?
Answer: Its remaining activity at 10 µM is 43.7%.

Question: And the remaining activity at 10 µM (1PBC 10, 60 mV, read-out: fraction of unblocked current)?
Answer: Its remaining activity at 10 µM is 39.8%.

Question: What about the remaining activity at 10 µM (1PBC 10, 80 mV, read-out: fraction of unblocked current) of the same compound?
Answer: The remaining activity at 10 µM was 36.9%.

Question: What about the remaining activity at 10 µM (1PBC 10, 100 mV, read-out: fraction of unblocked current) of the same compound?
Answer: Its remaining activity at 10 µM is 34.6%.

Question: What about the remaining activity at 10 µM (1PBC 10, 120 mV, read-out: fraction of unblocked current) of the same compound?
Answer: The remaining activity at 10 µM was 34.7%.

Question: What about the remaining activity at 10 µM (1PBC 10, 140 mV, read-out: fraction of unblocked current) of the same compound?
Answer: The remaining activity at 10 µM was 35.9%.

Question: What about the remaining activity at 10 µM (1PBC 10, -20 mV, read-out: fraction of unblocked current) of the same compound?
Answer: Its remaining activity at 10 µM is 59.6%.

Question: What about the remaining activity at 10 µM (1PBC 10, -40 mV, read-out: fraction of unblocked current) of the same compound?
Answer: Its remaining activity at 10 µM is 63.3%.

Question: What about the remaining activity at 10 µM (1PBC 10, -60 mV, read-out: fraction of unblocked current) of the same compound?
Answer: Its remaining activity at 10 µM is 67%.

Question: And the remaining activity at 10 µM (1PBC 10, -80 mV, read-out: fraction of unblocked current)?
Answer: The remaining activity at 10 µM was 70.8%.

Question: What about the remaining activity at 10 µM (1PBC 10, -100 mV, read-out: fraction of unblocked current) of the same compound?
Answer: Its remaining activity at 10 µM is 73%.

Question: What about the remaining activity at 10 µM (1PBC 10, -120 mV, read-out: fraction of unblocked current) of the same compound?
Answer: The remaining activity at 10 µM was 74.7%.

Question: And the remaining activity at 10 µM (1PBC 10, -140 mV, read-out: fraction of unblocked current)?
Answer: Its remaining activity at 10 µM is 75.4%.

Question: What about the remaining activity at 30 µM (1PBC 30, 0 mV, read-out: fraction of unblocked current) of the same compound?
Answer: The remaining activity at 30 µM was 28.6%.

Question: And the remaining activity at 30 µM (1PBC 30, 20 mV, read-out: fraction of unblocked current)?
Answer: The remaining activity at 30 µM was 24.4%.

Question: And the remaining activity at 30 µM (1PBC 30, 40 mV, read-out: fraction of unblocked current)?
Answer: Its remaining activity at 30 µM is 20.9%.

Question: What about the remaining activity at 30 µM (1PBC 30, 60 mV, read-out: fraction of unblocked current) of the same compound?
Answer: The remaining activity at 30 µM was 18.1%.

Question: And the remaining activity at 30 µM (1PBC 30, 80 mV, read-out: fraction of unblocked current)?
Answer: The remaining activity at 30 µM was 16.6%.

Question: What about the remaining activity at 30 µM (1PBC 30, 100 mV, read-out: fraction of unblocked current) of the same compound?
Answer: Its remaining activity at 30 µM is 15.4%.

Question: And the remaining activity at 30 µM (1PBC 30, 120 mV, read-out: fraction of unblocked current)?
Answer: The remaining activity at 30 µM was 15.7%.

Question: What about the remaining activity at 30 µM (1PBC 30, 140 mV, read-out: fraction of unblocked current) of the same compound?
Answer: Its remaining activity at 30 µM is 16.3%.

Question: What about the remaining activity at 30 µM (1PBC 30, -20 mV, read-out: fraction of unblocked current) of the same compound?
Answer: The remaining activity at 30 µM was 32.7%.

Question: And the remaining activity at 30 µM (1PBC 30, -40 mV, read-out: fraction of unblocked current)?
Answer: The remaining activity at 30 µM was 36.9%.
